BigSolDB 2.1

N[C@@H](Cc1ccc([N+](=O)[O-])cc1[N+](=O)[O-])C(=O)O
solubility (mole fraction)
Conditions | in 1,2-dichloroethane | in acetone | in ethanol | in ethyl acetate | in isopropanol | in methanol | in n-butanol | in n-propanol | in sec-butanol | in water
273.15 K | 2.2e-09 | 1.58e-06 | 3.44e-05 | – | 1.51e-06 | 1.5e-05 | 3.84e-06 | 2.58e-06 | 6.49e-07 | 8.5e-08
278.15 K | – | 1.64e-06 | – | – | 2.96e-06 | 4.12e-05 | – | – | – | –
283.15 K | 8.6e-09 | 1.72e-06 | 9.2e-05 | – | 5.45e-06 | 9.1e-05 | 3.91e-06 | 3.54e-06 | 6.79e-07 | 1.12e-06
288.15 K | – | 1.91e-06 | – | – | 9.49e-06 | 0.000192 | – | – | – | –
293.15 K | 3.08e-08 | 2.15e-06 | 0.000195 | – | 1.56e-05 | 0.000365 | 3.99e-06 | 5.64e-06 | 6.92e-07 | 9.26e-06
298.15 K | – | 2.56e-06 | – | – | 2.42e-05 | 0.000578 | – | – | – | –
303.15 K | 1.05e-07 | 3.06e-06 | 0.00035 | 9.1e-09 | 3.57e-05 | 0.000909 | 4.28e-06 | 1.01e-05 | 7.79e-07 | 5.12e-05
308.15 K | – | 3.99e-06 | – | – | 5.03e-05 | 0.00123 | – | – | – | –
313.15 K | 3.27e-07 | 5.26e-06 | 0.00051 | 1.88e-07 | 6.78e-05 | 0.00155 | 5.01e-06 | 2.04e-05 | 9.45e-07 | 0.000189
318.15 K | – | 7.14e-06 | – | – | 8.75e-05 | 0.00181 | – | – | – | –
323.15 K | 9.77e-07 | 1.01e-05 | 0.000671 | 1.88e-06 | 0.000109 | 0.00196 | 6.29e-06 | 4.55e-05 | 1.23e-06 | 0.000523
328.15 K | – | 1.45e-05 | – | – | 0.00013 | 0.00197 | – | – | – | –
333.15 K | 2.69e-06 | 2.19e-05 | 0.000772 | 1.12e-05 | 0.00015 | 0.00198 | 8.34e-06 | 0.000113 | 1.71e-06 | 0.00107
338.15 K | – | – | – | – | 0.000167 | – | – | – | – | –
343.15 K | – | – | 0.00079 | 3.58e-05 | – | – | 1.15e-05 | 0.000294 | 2.49e-06 | 0.00166
348.15 K | – | – | – | 5.44e-05 | – | – | – | – | – | –
353.15 K | – | – | 0.000791 | – | – | – | 1.69e-05 | 0.000812 | 3.87e-06 | 0.00193
363.15 K | – | – | – | – | – | – | 2.6e-05 | 0.00241 | 6.11e-06 | 0.00198
368.15 K | – | – | – | – | – | – | – | 0.00424 | – | 0.00201
